Results: article PMC8456950, “Structure‐Guided Design of G‐Protein‐Coupled Receptor Polypharmacology” (Angewandte Chemie (International Ed. in English), 2021)

Key:
Human D2R = molecular target: T1, Human D2R (Homo sapiens, UniProt P14416); assay: D2R functional cAMP (HTRF) assay in CHO-D2 #S20 cells; format: cell-based; conditions: for EC50: cAMP HTRF, CHO-D2 cells, forskolin 10 µM, mean±SEM n=3; for Emax: relative to the maximal effect of dopamine
T1 construct: expressed in transfected cells; host or cells: CHO-D2R #S20 cell line (membranes)
Method: KB=I C50/(1+([NECA]/EC50 NECA)).
Functional assays for the human D2R were carried out in a CHO-D2 #S20 cell line. 5,000 cells were seed ed in 30 µl of Opti-ME M (Invitrogen 11058) and 500µM IBMX (Sigma 17018) on a 96-well isoplate (PerkinElmer 6005030). The studied compounds wer e then added and incubated for 10 min at 37 °C with gentle stirring (150 rpm). Then, 10 µM […]
forskolin (Sigma 17018) was added and incubated for 5 min at 37 °C with gentle stirring (150 rpm). Reagents (#CISBIO 62AM4PEC) were added and, after incubation for 60 min at rt with gentle stirring (90 rpm) and protected from light, homogeneous time resolved fluorescence (HTRF, λEx: 320 nm; λEm: 620-665 nm) from each well was measured using a Tecan Infinite M1000 Pro. Data were normalized to the maximum effect of dopamine. EC50 and Ema x values were obtained after fitting the d ata to a four -parameter logistic equatio n using Prism V2. 1 (Graph Pad Inc, Chicago, USA) . […]

D3R = molecular target: T2, D3R (Homo sapiens, UniProt P35462); assay: D3R competition binding ([3H]-spiperone); conditions: mean±SEM of two experiments in duplicate; read-out: D3R binding affinity Ki
T2 construct: purchased Perkin Elmer ES-173M400UA
Method: samples were filtered and washed four times with 250 µl wash buffer (50 mM Tris-HCl, 0.9% NaCl, pH=7.4) before measuring in a microplate beta scintillation counter (Microbeta Trilux, PerkinElmer, Madrid, Spain). Three independent exp eriments were carried out to calculate Ki values (n=3).
Human A1AR competition binding experiments were carried out in multiscreen GF/C 96 -well plates (Millipore, Madrid, Spain) pretreated with assay buffer ( 20 mM Hepes, 100 mM NaCl, 10 mM MgCl2, 2 U/ml adeno sine deamina se, pH=7.4). Each well contained 5 µg of membranes from a CHO-A1AR cell line, 1 nM [3H]-DPCPX (137 Ci/mmol, 1 mCi/Ml, Perkin Elmer NET974001MC), and the compound studied. Non-specific binding was determined in the presence of R-PIA 10 µM (Sigma P4532). The reaction mixture (200 µl/well) was incubated at 25°C for 60 min. The samples were then filtered and washed four times with 250 µl wash buffer (20 mM Hepes, 100 mM NaCl, 10 mM MgCl2, pH=7.4) before measuring in a microplate beta scintillati on counter (Microbeta Trilux, PerkinElmer, Madrid, Spain). Two independent experiments were carried out to calculate K i values (n=2).
D3R competition binding experiments were carried out in polypropylene 96 -well plate s. Each well contained 2 µg of membranes from a D3R cell line (Perkin Elmer, ES-173M400UA, protein concentration=1000 µg/ml), 1 nM [3H]-spiperone (68 Ci/mmol, 1 mCi/ml, Perkin Elmer NET1187001MC), and the compound studied. Non-specific binding was determined in the presence of 1 µ M haloperidol (Sigma H1512). The reaction mixture (250 µl/well) was incubated at 25 °C for 60 min, after which 200 µL was transferred to GF/C 96-well plates (Millipore, Madrid, Spain) pretreated with 0. […]
D4R competition binding experiments were carried out in polypropylene 96 -well plate s. […] Non-specific binding was determined in the presence of 25 µM haloperidol (Sigma H1512). […]
H1R competition binding experiments were carried out in polypropylene 96-well plates. […] Non-specific binding was determined in the presence of 10 µM triprolidine (T6764, Sigma Aldrich). […]

T1 sequence (P14416 whole entry): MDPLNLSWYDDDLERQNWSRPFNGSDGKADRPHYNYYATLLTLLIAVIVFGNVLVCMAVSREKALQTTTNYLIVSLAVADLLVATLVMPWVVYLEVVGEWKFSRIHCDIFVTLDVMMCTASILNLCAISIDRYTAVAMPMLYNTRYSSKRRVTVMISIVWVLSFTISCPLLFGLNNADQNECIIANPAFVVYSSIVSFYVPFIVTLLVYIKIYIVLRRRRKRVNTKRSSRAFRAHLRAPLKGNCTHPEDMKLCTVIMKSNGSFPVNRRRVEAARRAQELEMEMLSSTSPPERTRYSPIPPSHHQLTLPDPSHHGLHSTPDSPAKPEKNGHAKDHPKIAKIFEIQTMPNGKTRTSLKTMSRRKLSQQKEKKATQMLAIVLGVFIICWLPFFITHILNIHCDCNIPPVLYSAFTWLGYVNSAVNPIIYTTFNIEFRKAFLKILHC
T2 sequence (P35462 whole entry): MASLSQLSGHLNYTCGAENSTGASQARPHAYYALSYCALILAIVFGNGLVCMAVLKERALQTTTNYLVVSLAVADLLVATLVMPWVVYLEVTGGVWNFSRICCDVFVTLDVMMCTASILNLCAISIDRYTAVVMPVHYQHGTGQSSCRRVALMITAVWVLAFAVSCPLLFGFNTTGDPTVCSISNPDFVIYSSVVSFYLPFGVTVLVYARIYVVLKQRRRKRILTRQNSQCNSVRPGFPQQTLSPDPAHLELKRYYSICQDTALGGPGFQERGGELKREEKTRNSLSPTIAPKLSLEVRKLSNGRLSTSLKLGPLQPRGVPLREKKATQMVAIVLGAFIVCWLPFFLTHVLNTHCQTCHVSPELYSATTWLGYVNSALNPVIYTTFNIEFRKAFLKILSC

| EC50 (Human D2R) [nM] | Emax (Human D2R) [%] | Ki (D3R) [nM] | Structure (SMILES) |
| --- | --- | --- | --- |
| 2500 ± 900 | 119 ± 6 | 21 ± 6 | CCN(CCCCC(=O)Nc1nc2c(Br)cccc2s1)C1Cc2ccccc2C1 [Compound 22] |
| 990 ± 380 | 94 ± 3 | 21 ± 2 | CCCN(CCCCC(=O)Nc1nc2c(OC)cccc2s1)C1Cc2ccccc2C1 [Compound 26] |
| 180 ± 30 | 89 ± 4 | – | CCCN(CCCCC(=O)Nc1nc2c(Br)cccc2s1)C1Cc2ccccc2C1 [Compound 27] |
| 180 ± 40 | 77 ± 5 | 56 ± 7 | CCCN(CCCCC(=O)Nc1nc2c(OC)ccc(OC)c2s1)C1Cc2ccccc2C1 [Compound 30] |
